Source: patent US12637473B2, “MDM2 protein degraders” (THE REGENTS OF THE UNIVERSITY OF MICHIGAN, priority 2016, dated 2026)

Tested on: RS4; 11 cell line
Experiment: CellTiter-Glo Luminescent Cell Viability Assay, cell growth inhibition
Type: cell-based
Conditions: Homo sapiens, 96 h, 4 days
Experimental: Cell growth inhibitory activity of representative MDM2 protein degraders was determined using CellTiter-Glo® Luminescent Cell Viability Assay. Cells were seeded in 384-well white opaque cell culture plates at a density of 2,000 cells/well with serially diluted compounds and incubated at 37° C. in an atmosphere of 95% air and 5% CO2 for 4 days. Cell viability was determined using the CellTiter-Glo® Luminescent Cell Viability Assay Kit (Promega, Madison, WI) according to the manufacture's instruction. Briefly, a volume of CellTiter-Glo® Reagent equal to the volume of cell culture medium was added to each well, and then the plates were incubated at room temperature for 10-20 minutes. The luminescent signal was measured using a Tecan Infinite M1000 multimode microplate reader (Tecan, Morrisville, NC). The half maximal inhibitory concentration (IC50) was calculated using the GraphPad Prism 5 software (GraphPad Software, La Jolla, CA). Cpd. […] The structure of Cpd.

| SMILES | IC50 [nM] |
| --- | --- |
| O=C1CCC(N2C(=O)c3cccc(NCCCOCCOCCOCCCNC(=O)c4ccc(NC(=O)[C@@H]5NC6(CCCCC6)[C@@]6(C(=O)Nc7cc(Cl)ccc76)[C@H]5c5cccc(Cl)c5F)nc4)c3C2=O)C(=O)N1 (stereo partly drawn) [Cpd. No. 25, (3′R,4'S,5′R)-6″-chloro-4′-(3-chloro-2-fluorophenyl)-N-(5-((3-(2-(2-(3-((2-(2,6-dioxopiperidin-3-yl)-1,3-dioxoisoindolin-4-yl)amino)propoxy)ethoxy)ethoxy)propyl)carbamoyl)pyridin-2-yl)-2″-oxodispiro[cyclohexane-1,2′-pyrrolidine-3′,3″-indoline]-5′-carboxamide] | 7.4 |
| O=C1CCC(N2Cc3c(CCCOCCOCCNC(=O)c4ccc(NC(=O)[C@@H]5NC6(CCCCC6)[C@@]6(C(=O)Nc7cc(Cl)ccc76)[C@H]5c5cccc(Cl)c5F)cc4)cccc3C2=O)C(=O)N1 (stereo partly drawn) [Cpd. No. 35, (3′R,4'S,5′R)-6″-chloro-4′-(3-chloro-2-fluorophenyl)-N-(4-((2-(2-(3-(2-(2,6-dioxopiperidin-3-yl)-1-oxoisoindolin-4-yl)propoxy)ethoxy)ethyl)carbamoyl)phenyl)-2″-oxodispiro[cyclohexane-1,2′-pyrrolidine-3′,3″-indoline]-5′-carboxamide] | 5.7 |
| COc1cc(C(=O)NCCCOCCOCCOCCCNc2cccc3c2C(=O)N(C2CCC(=O)NC2=O)C3=O)ccc1NC(=O)[C@@H]1N[C@@H](CC(C)(C)C)[C@](C#N)(c2ccc(Cl)cc2F)[C@H]1c1cccc(Cl)c1F (stereo partly drawn) [Cpd. No. 58, (2R,3S,4R,5S)-3-(3-chloro-2-fluorophenyl)-4-(4-chloro-2-fluorophenyl)-4-cyano-N-(4-((3-(2-(2-(3-((2-(2,6-dioxopiperidin-3-yl)-1,3-dioxoisoindolin-4-yl)amino)propoxy)ethoxy)ethoxy)propyl)carbamoyl)-2-methoxyphenyl)-5-neopentylpyrrolidine-2-carboxamide] | 14 |
| O=C1CCC(N2C(=O)c3cccc(CCCOCCOCCOCCNC(=O)c4ccc(NC(=O)[C@@H]5NC6(CCCCC6)[C@@]6(C(=O)Nc7cc(Cl)ccc76)[C@H]5c5cccc(Cl)c5F)cc4)c3C2=O)C(=O)N1 (stereo partly drawn) [Cpd. No. 38, (3′R,4'S,5′R)-6″-chloro-4′-(3-chloro-2-fluorophenyl)-N-(4-((2-(2-(2-(3-(2-(2,6-dioxopiperidin-3-yl)-1,3-dioxoisoindolin-4-yl)propoxy)ethoxy)ethoxy)ethyl)carbamoyl)phenyl)-2″-oxodispiro[cyclohexane-1,2′-pyrrolidine-3′,3″-indoline]-5′-carboxamide] | 46 |
| CCN1[C@@H](C(=O)NC23CCC(C(=O)NCCOCCOCCNC(=O)COc4cccc5c4C(=O)N(C4CCC(=O)NC4=O)C5=O)(CC2)CC3)[C@H](c2cccc(Cl)c2F)[C@]2(C(=O)Nc3cc(Cl)ccc32)C12CCCCC2 (stereo partly drawn) [Cpd. No. 45, (3′R,4'S,5′R)-6″-chloro-4′-(3-chloro-2-fluorophenyl)-N-(4-((2-(2-(2-(2-((2-(2,6-dioxopiperidin-3-yl)-1,3-dioxoisoindolin-4-yl)oxy)acetamido)ethoxy)ethoxy)ethyl)carbamoyl)bicyclo[2.2.2]octan-1-yl)-1′-ethyl-2″-oxodispiro[cyclohexane-1,2′-pyrrolidine-3′,3″-indoline]-5′-carboxamide] | 35 |
| O=C1CCC(N2C(=O)c3cccc(NCCCCCNC(=O)c4ccc(NC(=O)[C@@H]5NC6(CCCCC6)[C@@]6(C(=O)Nc7cc(Cl)ccc76)[C@H]5c5cccc(Cl)c5F)cc4)c3C2=O)C(=O)N1 (stereo partly drawn) [Cpd. No. 10, (3′R,4'S,5′R)-6″-chloro-4′-(3-chloro-2-fluorophenyl)-N-(4-((5-((2-(2,6-dioxopiperidin-3-yl)-1,3-dioxoisoindolin-4-yl)amino)pentyl)carbamoyl)phenyl)-2″-oxodispiro[cyclohexane-1,2′-pyrrolidine-3′,3″-indoline]-5′-carboxamide] | 12 |
| O=C1CCC(N2C(=O)c3cccc(NCCCCCCCNC(=O)c4ccc(NC(=O)[C@@H]5NC6(CCCCC6)[C@@]6(C(=O)Nc7cc(Cl)ccc76)[C@H]5c5cccc(Cl)c5F)cc4)c3C2=O)C(=O)N1 (stereo partly drawn) [Cpd. No. 12, (3′R,4'S,5′R)-6″-chloro-4′-(3-chloro-2-fluorophenyl)-N-(4-((7-((2-(2,6-dioxopiperidin-3-yl)-1,3-dioxoisoindolin-4-yl)amino)heptyl)carbamoyl)phenyl)-2″-oxodispiro[cyclohexane-1,2′-pyrrolidine-3′,3″-indoline]-5′-carboxamide] | 100 |
| CC(C)[C@@H](CS(=O)(=O)C(C)C)N1C(=O)[C@@](C)(CC(=O)NCCCOCCOCCOCCCNc2cccc3c2C(=O)N(C2CCC(=O)NC2=O)C3=O)C[C@H](c2cccc(Cl)c2)[C@H]1c1ccc(Cl)cc1 (stereo partly drawn) [Cpd. No. 61, 2-((3R,5R,6S)-5-(3-chlorophenyl)-6-(4-chlorophenyl)-1-((S)-1-(isopropylsulfonyl)-3-methylbutan-2-yl)-3-methyl-2-oxopiperidin-3-yl)-N-(3-(2-(2-(3-((2-(2,6-dioxopiperidin-3-yl)-1,3-dioxoisoindolin-4-yl)amino)propoxy)ethoxy)ethoxy)propyl)acetamide] | 98 |
| O=C1CCC(N2C(=O)c3cccc(CCCCCNC(=O)c4ccc(NC(=O)[C@@H]5NC6(CCCCC6)[C@@]6(C(=O)Nc7cc(Cl)ccc76)[C@H]5c5cccc(Cl)c5F)cc4)c3C2=O)C(=O)N1 (stereo partly drawn) [Cpd. No. 32, (3′R,4'S,5′R)-6″-chloro-4′-(3-chloro-2-fluorophenyl)-N-(4-((5-(2-(2,6-dioxopiperidin-3-yl)-1,3-dioxoisoindolin-4-yl)pentyl)carbamoyl)phenyl)-2″-oxodispiro[cyclohexane-1,2′-pyrrolidine-3′,3″-indoline]-5′-carboxamide] | 23 |
| O=C1CCC(N2Cc3c(NC(=O)CCOCCOCCNC(=O)c4ccc(NC(=O)[C@@H]5NC6(CCCCC6)[C@@]6(C(=O)Nc7cc(Cl)ccc76)[C@H]5c5cccc(Cl)c5F)cc4)cccc3C2=O)C(=O)N1 (stereo partly drawn) [Cpd. No. 29, (3′R,4'S,5′R)-6″-chloro-4′-(3-chloro-2-fluorophenyl)-N-(4-((2-(2-(3-((2-(2,6-dioxopiperidin-3-yl)-1-oxoisoindolin-4-yl)amino)-3-oxopropoxy)ethoxy)ethyl)carbamoyl)phenyl)-2″-oxodispiro[cyclohexane-1,2′-pyrrolidine-3′,3″-indoline]-5′-carboxamide] | 15 |
| O=C1CCC(N2Cc3c(CCCCCNC(=O)c4ccc(NC(=O)[C@@H]5NC6(CCCCC6)[C@@]6(C(=O)Nc7cc(Cl)ccc76)[C@H]5c5cccc(Cl)c5F)cc4)cccc3C2=O)C(=O)N1 (stereo partly drawn) [Cpd. No. 31, (3′R,4'S,5′R)-6″-chloro-4′-(3-chloro-2-fluorophenyl)-N-(4-((5-(2-(2,6-dioxopiperidin-3-yl)-1-oxoisoindolin-4-yl)pentyl)carbamoyl)phenyl)-2″-oxodispiro[cyclohexane-1,2′-pyrrolidine-3′,3″-indoline]-5′-carboxamide] | 1.8 |
| CC(C)[C@@H](CS(=O)(=O)C(C)C)N1C(=O)[C@@](C)(CC(=O)NCCOCCOCCNc2cccc3c2C(=O)N(C2CCC(=O)NC2=O)C3=O)C[C@H](c2cccc(Cl)c2)[C@H]1c1ccc(Cl)cc1 (stereo partly drawn) [Cpd. No. 60, 2-((3R,5R,6S)-5-(3-chlorophenyl)-6-(4-chlorophenyl)-1-((S)-1-(isopropylsulfonyl)-3-methylbutan-2-yl)-3-methyl-2-oxopiperidin-3-yl)-N-(2-(2-(2-((2-(2,6-dioxopiperidin-3-yl)-1,3-dioxoisoindolin-4-yl)amino)ethoxy)ethoxy)ethyl)acetamide] | 404 |
| O=C1CCC(N2Cc3c(CCCOCCOCCOCCNC(=O)c4ccc(NC(=O)[C@@H]5NC6(CCCCC6)[C@@]6(C(=O)Nc7cc(Cl)ccc76)[C@H]5c5cccc(Cl)c5F)cc4)cccc3C2=O)C(=O)N1 (stereo partly drawn) [Cpd. No. 37, (3′R,4'S,5′R)-6″-chloro-4′-(3-chloro-2-fluorophenyl)-N-(4-((2-(2-(2-(3-(2-(2,6-dioxopiperidin-3-yl)-1-oxoisoindolin-4-yl)propoxy)ethoxy)ethoxy)ethyl)carbamoyl)phenyl)-2″-oxodispiro[cyclohexane-1,2′-pyrrolidine-3′,3″-indoline]-5′-carboxamide] | 3.8 |
| Cc1ncsc1-c1ccc(CNC(=O)[C@@H]2C[C@@H](O)CN2C(=O)[C@@H](NC(=O)CCOCCOCCNC(=O)c2ccc(NC(=O)[C@@H]3NC4(CCCCC4)[C@@]4(C(=O)Nc5cc(Cl)ccc54)[C@H]3c3cccc(Cl)c3F)cc2)C(C)(C)C)cc1 [compound 42] | 677 |
| O=C1CCC(N2C(=O)c3cccc(NCCOCCOCCNC(=O)c4ccc(NC(=O)[C@@H]5NC6(CCCCC6)[C@@]6(C(=O)Nc7cc(Cl)ccc76)[C@H]5c5cccc(Cl)c5F)cn4)c3C2=O)C(=O)N1 (stereo partly drawn) [Cpd. No. 26, (3′R,4'S,5′R)-6″-chloro-4′-(3-chloro-2-fluorophenyl)-N-(6-((2-(2-(2-((2-(2,6-dioxopiperidin-3-yl)-1,3-dioxoisoindolin-4-yl)amino)ethoxy)ethoxy)ethyl)carbamoyl)pyridin-3-yl)-2″-oxodispiro[cyclohexane-1,2′-pyrrolidine-3′,3″-indoline]-5′-carboxamide] | 8 |
| O=C1CCC(N2C(=O)c3cccc(CCCOCCNC(=O)c4ccc(NC(=O)[C@@H]5NC6(CCCCC6)[C@@]6(C(=O)Nc7cc(Cl)ccc76)[C@H]5c5cccc(Cl)c5F)cc4)c3C2=O)C(=O)N1 (stereo partly drawn) [Cpd. No. 34, (3′R,4'S,5′R)-6″-chloro-4′-(3-chloro-2-fluorophenyl)-N-(4-((2-(3-(2-(2,6-dioxopiperidin-3-yl)-1,3-dioxoisoindolin-4-yl)propoxy)ethyl)carbamoyl)phenyl)-2″-oxodispiro[cyclohexane-1,2′-pyrrolidine-3′,3″-indoline]-5′-carboxamide] | 17.8 |
